Experimental data as given in patent US5026836A, “6-sulfenamide, 6-sulfinamide and 6-sulfonamide purines, purine nucleosides, purine nucleotides, pharmaceutical compositions, and processes of making” (priority 1988, dated 1991).
“And” between values parts separate entries of the source, which are not always exact repeats. Identical values can stand only once.

Tested on: L1210 cells
Assay: L1210 cells surviving treatment (% of original inoculum)
Format: in vivo, mouse
Source text: Values below 25% are considered capable of producing effective therapy, those below 10% are considered good and those below 5% are considered very good. This expresses the percent of the cells which survived treatment based upon the original cells in the inoculum. Those tests expressed as increases in life span (% ILS) indicate the increased life span of the drug treated group compared to a control group.
As an indicator of reproducible activity, compounds of the invention and other known cancer chemotherapeutic agents were screened against L1210 lymphoid leukemia in vivo utilizing the mouse as a test species. Normal NCI protocols for this test require 10^5 seed cells of the L1210 cell line. However for the purposes of tests with the L1210 cell line in testing the compounds of the invention for antitumor activity, a log greater, i.e. 10^6 cells were utilized.
Tables 2-a and 2-b illustrate a dose response for Compound 19 against L1210 inoculated mice expressed as both increased life span compared to control and as the number of cells of the original inoculum surviving drug treatment. As is evident from the various regimens of drug treatment shown in Tables 2-a and 2-b, effective therapeutic effects are noted and a dose response to Compound 19 is evident. […] Cytosine Arabinoside must be given every three hours. Test results are given utilizing standard protocols based on mean survival time and are expressed as T/C percentages (treated animals/control animals).

## Nc1nc([S+](N)[O-])c2ncn([C@@H]3O[C@H](CO)[C@@H](O)[C@H]3O)c2n1 (mixture of isomers) [Compound 19, 2-amino-9-β-D-ribofuranosyl-9H-purine-6-sulfinamide]
22 mg/kg, bid days 1,3,5,7
  L1210 cells surviving day 7 treatment (% of original inoculum): 594%
22 mg/kg, bid days 1,4,7
  L1210 cells surviving day 7 treatment (% of original inoculum): 9211%
22 mg/kg, bid days 1-7
  L1210 cells surviving day 7 treatment (% of original inoculum): 343%
37 mg/kg, bid days 1,3,5,7
  L1210 cells surviving day 7 treatment (% of original inoculum): 17%
37 mg/kg, bid days 1,4,7
  L1210 cells surviving day 7 treatment (% of original inoculum): 87%
37 mg/kg, bid days 1-7
  L1210 cells surviving day 7 treatment (% of original inoculum): 22%
37 mg/kg, qd days 1,3,5,7
  L1210 cells surviving day 7 treatment (% of original inoculum): 3077%
37 mg/kg, qd days 1,4,7
  L1210 cells surviving day 7 treatment (% of original inoculum): 15936%
37 mg/kg, qd days 1-7
  L1210 cells surviving day 7 treatment (% of original inoculum): 115%
62 mg/kg, bid days 1,3,5,7
  L1210 cells surviving day 7 treatment (% of original inoculum): 0.3%
62 mg/kg, bid days 1,4,7
  L1210 cells surviving day 7 treatment (% of original inoculum): 5.6%
62 mg/kg, qd days 1,3,5,7
  L1210 cells surviving day 7 treatment (% of original inoculum): 50%
62 mg/kg, qd days 1,4,7
  L1210 cells surviving day 7 treatment (% of original inoculum): 594%
62 mg/kg, qd days 1-7
  L1210 cells surviving treatment (% of original inoculum): 13%
104 mg/kg, qd days 1,3,5,7
  L1210 cells surviving treatment (% of original inoculum): 17%
104 mg/kg, qd days 1,4,7
  L1210 cells surviving treatment (% of original inoculum): 29%
173 mg/kg, qd days 1,3,5,7
  L1210 cells surviving treatment (% of original inoculum): 0.2%
173 mg/kg, qd days 1,4,7
  L1210 cells surviving treatment (% of original inoculum): 1.1%
Ip 37 mg/kg/inj, bid days 1,3,5,7
  RCP (Residual Cell Population): .32
Ip 62 mg/kg, bid day 1
  L1210 cells surviving (% of day zero inoculum): 0.8%
Ip 62 mg/kg, qd day 1, 62 mg/kg
  L1210 cells surviving (% of day zero inoculum): 0.8% and 8.5%
Ip 62 mg/kg, tid day 1
  L1210 cells surviving (% of day zero inoculum): 0.4%
Ip 62 mg/kg/inj, bid days 1,4,7
  RCP (Residual Cell Population): .14
Ip 104 mg/kg, qd day 1
  L1210 cells surviving (% of day zero inoculum): 5.4%
Ip 104 mg/kg/day, qd days 1-7, 1 long term survivor not included
  L1210 cells surviving treatment (% of day zero inoculum): 0.04%
Ip 173 mg/kg, qd day 1
  L1210 cells surviving (% of day zero inoculum): 1.4%
Oral 37 mg/kg/inj, bid days 1,3,5,7
  RCP (Residual Cell Population): 3.73
Oral 62 mg/kg/inj, bid days 1,4,7
  RCP (Residual Cell Population): 8.48
